This experiment has as its target T1, VOR complex (VAP-A, ORP3, Rab7); Rab7 binding to ORP3 (Homo sapiens, UniProt Q9H4L5).
T1 construct: gene OSBPL3; endogenous full-length proteins in HeLa detergent lysate, ORP3 immunoisolated with antibody D-12; with Ras-related protein Rab-7a; Vesicle-associated membrane protein-associated protein A
T1 sequence (Q9H4L5 1-887): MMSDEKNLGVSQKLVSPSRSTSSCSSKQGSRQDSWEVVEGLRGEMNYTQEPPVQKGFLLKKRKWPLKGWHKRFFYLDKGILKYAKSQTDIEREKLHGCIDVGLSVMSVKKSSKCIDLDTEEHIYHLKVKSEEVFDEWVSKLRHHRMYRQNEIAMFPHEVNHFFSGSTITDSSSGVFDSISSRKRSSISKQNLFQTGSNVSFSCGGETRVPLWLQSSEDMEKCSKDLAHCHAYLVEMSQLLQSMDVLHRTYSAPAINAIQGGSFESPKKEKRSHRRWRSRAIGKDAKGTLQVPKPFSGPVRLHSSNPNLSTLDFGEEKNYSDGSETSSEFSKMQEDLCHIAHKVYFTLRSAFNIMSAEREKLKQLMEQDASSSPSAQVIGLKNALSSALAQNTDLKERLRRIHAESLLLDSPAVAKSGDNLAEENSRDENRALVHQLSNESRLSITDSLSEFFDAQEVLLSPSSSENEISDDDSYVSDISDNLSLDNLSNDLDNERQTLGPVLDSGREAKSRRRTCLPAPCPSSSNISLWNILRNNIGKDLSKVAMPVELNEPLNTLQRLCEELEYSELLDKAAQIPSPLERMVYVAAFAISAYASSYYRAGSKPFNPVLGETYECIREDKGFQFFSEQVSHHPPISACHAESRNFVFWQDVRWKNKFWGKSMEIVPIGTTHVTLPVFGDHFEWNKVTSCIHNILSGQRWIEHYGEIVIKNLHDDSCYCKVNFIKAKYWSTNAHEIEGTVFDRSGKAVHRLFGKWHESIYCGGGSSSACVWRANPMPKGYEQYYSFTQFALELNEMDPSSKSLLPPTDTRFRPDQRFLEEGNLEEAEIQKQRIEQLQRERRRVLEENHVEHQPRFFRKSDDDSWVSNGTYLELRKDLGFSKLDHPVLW
T1 sequence (Q9P0L0 2-249 partner): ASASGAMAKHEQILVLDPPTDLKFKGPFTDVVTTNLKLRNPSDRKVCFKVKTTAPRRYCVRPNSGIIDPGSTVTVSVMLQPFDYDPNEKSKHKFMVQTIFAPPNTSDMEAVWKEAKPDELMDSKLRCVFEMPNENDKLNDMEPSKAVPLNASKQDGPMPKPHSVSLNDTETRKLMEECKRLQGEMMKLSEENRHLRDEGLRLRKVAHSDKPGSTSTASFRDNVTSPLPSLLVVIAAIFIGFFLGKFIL
Briefly: ORP3 immunoisolation from drug-treated HeLa detergent lysate, Rab7/ORP3 immunoblot ratio, linear regression. The conditions noted are these: inhibition of Rab7 binding to ORP3 (VAP-A/ORP3); lysate with 1-10 μM compound, 30 min on ice; direct site on ORP3 ORD only cited from earlier work. In kind it is biochemical. (In general: In western blotting, separated proteins are transferred to a membrane and probed.)

One may read the IC50 as the midpoint of a concentration-inhibition curve. Take `CCC(C)n1ncn(-c2ccc(Cl)cc2)c1=O` (centres unmarked) [PRR851]: the IC50 worked out at 4.8 µM. As for `CCC(C)n1ncn(-c2ccc(N3CCN(c4ccc(OCC5COC(Cn6cncn6)(c6ccc(Cl)cc6Cl)O5)cc4)CC3)cc2)c1=O` (stereo not drawn) [ICZ, cis-4[4-4-4[[2-(2-4-dichlorophenyl)-2-(1H-1,2,4,triazol-1-methyl)-1,3-dioxolan-4-yl]-1-piperazinyl]phenyl]-2,4-dihydro-2-(1-methyl-propyl)-3H-1,2,4-triazol-3-one], the IC50 was determined as 4.9 µM.

(Values after publication PMC10415338, “HIV-1-induced nuclear invaginations mediated by VAP-A, ORP3, and Rab7 complex explain infection of activated T cells” (Nature Communications, 2023).)
